Experiments:
Format in all cases: cell-based
[1] = tested on: AsPC-1 (homozygous mutant KRAS G12D human pancreatic cell line); assay: KRAS 3D-Cell Proliferation Assay, AsPC-1 (Example 503); conditions: Homo sapiens, ASPC1, 168 h, AsPC-1 3D culture, 7 days, CellTiter-Glo 3D; read-out: Prolif AsPC-1 3D ATP IC50
Description: Example 503: KRAS 3D-Cell Proliferation Assays. Cellular potencies of compounds are assessed by evaluating inhibition of proliferation in 3D cultures of homozygous mutant KRAS G12D human pancreatic cell lines (AsPC-1 and HPAC) as compared to a KRAS wild type human lung adenocarcinoma cell line (PC-9 and/or H1975). Cells are seeded into 384-well black round-bottom, ultra-low attachment assay plates in 50 uL cell growth medium (RPMI-1640 with 10% fetal bovine serum and 2 mM L-glutamine). After overnight incubation at 37° C. and 5% CO2, compounds solubilized in DMSO are added as dilution series to the wells in a total volume of 150 nL (0.3% DMSO final). The cells are incubated for 7 days at 37° C. and 5% CO2. Cell proliferation is quantitated by addition of 40 uL/well of CellTiter-GloÒ 3D (Promega), and the well contents are mixed 20× at high speed using liquid handling automation workstation (Bravo with 384-well head) and centrifuged at 1500 rpm for 2 minutes to eliminate bubbles. This reagent in combination with mechanical disruption releases the cellular ATP to promote activity in a luciferase-based enzyme/substrate chemiluminescent detection system. After a 30-minute incubation under ambient conditions with shaking and an additional 10 minutes without shaking, the luminescence is read on a plate reader (e.g., EnVision [PerkinElmer]). The results are normalized to percent inhibition based on the following control samples: DMSO (0% inhibition) and 1 μM staurosporine (100% inhibition). The normalized luminescence results are plotted against compound concentration, and the data are fit to a 4-parameter Hill equation to determine the IC50 values.

[2] = tested on: H1975 (KRAS wild type human lung adenocarcinoma cell line); assay: KRAS 3D-Cell Proliferation Assay, H1975 (Example 503); conditions: Homo sapiens, NCI-H1975, 168 h, H1975 3D culture, 7 days, CellTiter-Glo 3D; read-out: Prolif H1975 3D ATP IC50
Method in brief: (§1)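 Luminescent ATP readout (CellTiter-Glo 3D, with mechanical mixing) measures growth of cells cultured in 3D after a 7-day compound exposure at 37° C. Percent inhibition is referenced to vehicle (DMSO) and 1 μM staurosporine controls, and IC50 comes from a four-parameter Hill fit.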

[3] = tested on: HPAC (homozygous mutant KRAS G12D human pancreatic cell line); assay: KRAS 3D-Cell Proliferation Assay, HPAC (Example 503); conditions: Homo sapiens, HPAC, 168 h, HPAC 3D culture, 7 days, CellTiter-Glo 3D; read-out: Prolif HPAC 3D ATP IC50
Method in brief: as §1

SMILES | IC50 [1] [nM] | IC50 [2] [nM] | IC50 [3] [nM]
Cc1c(F)c(N)cc(-c2nc3c4c(nc(OC[C@@]56CCCN5CC5(CC5(F)F)C6)nc4c2F)N2C[C@H]4CC[C@H](N4)[C@H]2[C@H](C)O3)c1C(F)(F)F (stereo partly drawn) [Compound 62, 5-((5S,5aS,6S,9R)-12-(((7a′S)-2,2-Difluorodihydro-1′H,3′H-spiro[cyclopropane-1,2′-pyrrolizin]-7a′(5′H)-yl)methoxy)-1-fluoro-5-methyl-5a,6,7,8,9,10-hexahydro-5H-4-oxa-3,10a,11,13,14-pentaaza[6,9]methanonaphtho[1,8-ab]heptalen-2-yl)-2-fluoro-3-methyl-4-(trifluoromethyl)aniline] | 0.3 | 111 | 0.261
Cc1c(F)c(N)cc(-c2nc3c4c(nc(OC[C@@]56CCCN5C/C(=C\F)C6)nc4c2F)N2C[C@H]4CC[C@H](N4)[C@H]2[C@H](C)O3)c1C(F)(F)F [Compound 64, 2-fluoro-5-((5S,5aS,6S,9R)-1-fluoro-12-(((S,Z)-2-(fluoromethylene)tetrahydro-1H-pyrrolizin-7a(5H)-yl)methoxy)-5-methyl-5a,6,7,8,9,10-hexahydro-5H-4-oxa-3,10a,11,13,14-pentaaza-6,9-methanonaphtho[1,8-ab]heptalen-2-yl)-3-methyl-4-(trifluoromethyl)aniline] | 0.9 | 235 | 0.46
Cc1cc(N)cc(-c2nc3c4c(nc(OC[C@]56CCCN5CC(F)(F)C6)nc4c2F)N2C[C@H]4CC[C@H](N4)[C@H]2[C@H](C)O3)c1C(F)(F)F [Compound 69, 3-((5S,5aS,6S,9R)-12-(((R)-2,2-Difluorotetrahydro-1H-pyrrolizin-7a(5H)-yl)methoxy)-1-fluoro-5-methyl-5a,6,7,8,9,10-hexahydro-5H-4-oxa-3,10a,11,13,14-pentaaza-6,9-methanonaphtho[1,8-ab]heptalen-2-yl)-5-methyl-4-(trifluoromethyl)aniline] | 21.3 | 1280 | 6.42
C[C@@H]1Oc2nc(-c3cc(N)c(F)cc3C(F)(F)F)c(F)c3nc(OC[C@@H]4CC[C@H]5COCCN54)nc(c23)N2C[C@H]3CC[C@H](N3)[C@@H]12 [Compound 70, 2-Fluoro-5-((5S,5aS,6S,9R)-1-fluoro-12-(((6S,8aS)-hexahydro-1H-pyrrolo[2,1-c][1,4]oxazin-6-yl)methoxy)-5-methyl-5a,6,7,8,9,10-hexahydro-5H-4-oxa-3,10a,11,13,14-pentaaza-6,9-methanonaphtho[1,8-ab]heptalen-2-yl)-4-(trifluoromethyl)aniline] | 44.1 | 1700 | 11
Cc1c(F)c(N)cc(-c2nc3c4c(nc(OC[C@@]56CCCN5C[C@H](F)C6)nc4c2F)N2C[C@H]4CC[C@H](N4)[C@H]2[C@H](C)O3)c1CC(F)F [Compound 75, 4-(2,2-Difluoroethyl)-2-fluoro-5-((5S,5aS,6S,9R)-1-fluoro-12-(((2R,7aS)-2-fluorotetrahydro-1H-pyrrolizin-7a(5H)-yl)methoxy)-5-methyl-5a,6,7,8,9,10-hexahydro-5H-4-oxa-3,10a,11,13,14-pentaaza-6,9-methanonaphtho[1,8-ab]heptalen-2-yl)-3-methylaniline] | 5.2 | 797 | 2.77
C[C@@H]1Oc2nc(-c3cc(N)cc(F)c3C(F)(F)F)c(F)c3nc(OC[C@@H]4CC[C@H]5COCCN54)nc(c23)N2C[C@H]3CC[C@H](N3)[C@@H]12 [Compound 77, 3-Fluoro-5-((5S,5aS,6S,9R)-1-fluoro-12-(((6S,8aS)-hexahydro-1H-pyrrolo[2,1-c][1,4]oxazin-6-yl)methoxy)-5-methyl-5a,6,7,8,9,10-hexahydro-5H-4-oxa-3,10a,11,13,14-pentaaza-6,9-methanonaphtho[1,8-ab]heptalen-2-yl)-4-(trifluoromethyl)aniline] | 11.9 | 358 | 2.79
C[C@@H]1Oc2nc(-c3c(C(F)(F)F)cc(F)c(N)c3F)c(F)c3nc(OC[C@@]45CCCN4C[C@H](F)C5)nc(c23)N2C[C@H]3CC[C@H](N3)[C@@H]12 [Compound 90, 2,6-Difluoro-3-((5S,5aS,6S,9R)-1-fluoro-12-(((2R,7aS)-2-fluorotetrahydro-1H-pyrrolizin-7a(5H)-yl)methoxy)-5-methyl-5a,6,7,8,9,10-hexahydro-5H-4-oxa-3,10a,11,13,14-pentaaza-6,9-methanonaphtho[1,8-ab]heptalen-2-yl)-4-(trifluoromethyl)aniline] | 18.9 | 1140 | 7.3
Cc1c(F)c(N)c(F)c(-c2nc3c4c(nc(OC[C@@]56CCCN5C[C@H](F)C6)nc4c2F)N2C[C@H]4CC[C@H](N4)[C@H]2[C@H](C)O3)c1C(F)(F)F [Compound 91, 2,6-Difluoro-3-((5S,5aS,6S,9R)-1-fluoro-12-(((2R,7aS)-2-fluorotetrahydro-1H-pyrrolizin-7a(5H)-yl)methoxy)-5-methyl-5a,6,7,8,9,10-hexahydro-5H-4-oxa-3,10a,11,13,14-pentaaza-6,9-methanonaphtho[1,8-ab]heptalen-2-yl)-5-methyl-4-(trifluoromethyl)aniline] | 1.3 | 953 | 1.25
Cc1c(F)c(N)c(F)c(-c2nc3c4c(nc(OC[C@@H]5CC[C@H]6COCCN65)nc4c2F)N2C[C@H]4CC[C@H](N4)[C@H]2[C@H](C)O3)c1C(F)(F)F [Compound 96, 2,6-Difluoro-3-((5S,5aS,6S,9R)-1-fluoro-12-(((6S,8aS)-hexahydro-1H-pyrrolo[2,1-c][1,4]oxazin-6-yl)methoxy)-5-methyl-5a,6,7,8,9,10-hexahydro-5H-4-oxa-3,10a,11,13,14-pentaaza-6,9-methanonaphtho[1,8-ab]heptalen-2-yl)-5-methyl-4-(trifluoromethyl)aniline] | 5.8 | 982 | 3.69
Cc1cc(N)c(F)c(-c2nc3c4c(nc(OC[C@@H]5CC[C@H]6COCCN65)nc4c2F)N2C[C@H]4CC[C@H](N4)[C@H]2[C@H](C)O3)c1C(F)(F)F [Compound 97, 2-Fluoro-3-((5S,5aS,6S,9R)-1-fluoro-12-(((6S,8aS)-hexahydro-1H-pyrrolo[2,1-c][1,4]oxazin-6-yl)methoxy)-5-methyl-5a,6,7,8,9,10-hexahydro-5H-4-oxa-3,10a,11,13,14-pentaaza-6,9-methanonaphtho[1,8-ab]heptalen-2-yl)-5-methyl-4-(trifluoromethyl)aniline] | 10.1 | 573 | 3.21
C[C@@H]1Oc2nc(-c3cc(N)c(F)c(Cl)c3C(F)(F)F)c(F)c3nc(OC[C@@]45CCCN4C[C@H](F)C5)nc(c23)N2C[C@H]3CC[C@H](N3)[C@@H]12 [Compound 104, 3-Chloro-2-fluoro-5-((5S,5aS,6S,9R)-1-fluoro-12-(((2R,7aS)-2-fluorotetrahydro-1H-pyrrolizin-7a(5H)-yl)methoxy)-5-methyl-5a,6,7,8,9,10-hexahydro-5H-4-oxa-3,10a,11,13,14-pentaaza-6,9-methanonaphtho[1,8-ab]heptalen-2-yl)-4-(trifluoromethyl)aniline] | 1.4 | 221 | 0.65
Cc1nc(N)cc(-c2nc3c4c(nc(OC[C@@H]5CC[C@H]6COCCN65)nc4c2F)N2C[C@H]4CC[C@H](N4)[C@H]2[C@H](C)O3)c1C(F)(F)F [Compound 112, 4-((5S,5aS,6S,9R)-1-fluoro-12-(((6S,8aS)-hexahydro-1H-pyrrolo[2,1-c][1,4]oxazin-6-yl)methoxy)-5-methyl-5a,6,7,8,9,10-hexahydro-5H-4-oxa-3,10a,11,13,14-pentaaza-6,9-methanonaphtho[1,8-ab]heptalen-2-yl)-6-methyl-5-(trifluoromethyl)pyridin-2-amine] | 31.6 | 1470 | 7.59
Cc1c(F)c(N)cc(-c2nc3c4c(nc(OCC5(CN6CCOCC6)CC5)nc4c2F)N2C[C@H]4CC[C@H](N4)[C@H]2[C@H](C)O3)c1C(F)(F)F [Compound 118, 2-Fluoro-5-((5S,5aS,6S,9R)-1-fluoro-5-methyl-12-((1-(morpholinomethyl)cyclopropyl)methoxy)-5a,6,7,8,9,10-hexahydro-5H-4-oxa-3,10a,11,13,14-pentaaza-6,9-methanonaphtho[1,8-ab]heptalen-2-yl)-3-methyl-4-(trifluoromethyl)aniline] | 0.6 | 519 | 0.43

— US12338256B2, “Aza-tetracyclic oxazepine compounds and uses thereof” (Genentech, Inc., priority 2022, dated 2025)
